In US20160082087A1, “WHITENING PROMOTING AGENT OR ATOPIC DERMATITIS AMELIORATING AGENT” (NITTA GELATIN INC., priority 2013, published 2016):
Marks after values point to notes of the source that are not given here. Square brackets hold non-standard residues; d marks the D form. Ends that are not written are not given here. Hyp = O=C(O)[C@@H]1C[C@@H](O)CN1

Experiments:
Assay type in all cases: cell-based, human
[1] = system: filaggrin (FLG); experiment: FLG expression promotion test (real time PCR); conditions: 0.5 mM, 72 hours, NHEK (NB), control 1.00, GAPDH corrected
Description: (§1) A normal human epidermal keratinocyte NHEK (NB) (available from KURABO INDUSTRIES LTD.) was used. The cells were precultured in HuMedia-KG2 (available from KURABO INDUSTRIES LTD.), and 1.5×10^4 cells/mL×5 mL (7.5×10^4 cells/dish) were cultured in a 60 mm laboratory dish for two days. After confirming that the cells were subconfluent, the medium was replaced by 5 mL of HuMedia-KB2 (available from KURABO INDUSTRIES LTD.). Samples were added in respective concentrations, and allowed to react for 24 hours (ET-1, K10), 48 hours (TGM1, ivl, HAS2), and 72 hours (FLG). Total RNA was extracted from the cells, reverse transcribed, and subjected to real time PCR. In the real time PCR, as target genes, endoserine-1 (ET-1; Hs00174961_m1), keratin 10 (K10; Hs01043114_g1), transglutaminase 1 (TGM1; Hs01070310_m1), involucrin (ivl; Hs00846307_s1), filaggrin (FLG; Hs00856927_g1) and hyaluronic acid synthase 2 (HAS2; Hs00193435_m1) were measured. GAPDH was used as a correction gene. Calculation was conducted by using a calibration curve method, and FAM pigment of TaqMan Gene Expression was used in primers and probes.
(§2) For each peptide or the like of Examples 1 to 13 and Comparative Examples 1 to 27, RNA expression amounts of endoserine-1 (ET-1), keratin 10 (K10), transglutaminase 1 (TGM1), involucrin (ivl), filaggrin (FLG) and hyaluronic acid synthase 2 (HAS2) were measured. Values in the tables are each average value±standard deviation, and *, ** and *** denote that they are significant with P<0.05, P<0.01, and P<0.001, respectively with respect to the control in Paired-t-test.

[2] = system: endoserine-1 (ET-1); experiment: ET-1 expression suppression test (real time PCR); conditions: 0.5 mM, 24 hours, NHEK (NB), control 1.00, GAPDH corrected
Description: as §1, §2

[3] = system: hyaluronic acid synthase 2 (HAS2); experiment: HAS2 expression promotion test (real time PCR); conditions: 0.5 mM, 48 hours, NHEK (NB), control 1.00, GAPDH corrected
Description: as §1, §2

[4] = system: involucrin (ivl); experiment: ivl expression promotion test (real time PCR); conditions: 0.5 mM, 48 hours, NHEK (NB), control 1.00, GAPDH corrected
Description: as §1, §2

[5] = system: transglutaminase 1 (TGM1); experiment: TGM1 expression promotion test (real time PCR); conditions: 0.5 mM, 48 hours, NHEK (NB), control 1.00, GAPDH corrected
Description: as §1, §2

[6] = system: keratin 10 (K10); experiment: K10 expression promotion test (real time PCR); conditions: 0.5 mM, 24 hours, NHEK (NB), control 1.00, GAPDH corrected
Description: as §1, §2

| Compound | Filaggrin RNA expression amount [1] | Endoserine-I RNA expression amount [2] | Hyaluronic acid synthase 2 RNA expression amount [3] | Involucrin RNA expression amount [4] | Transglutaminase 1 RNA expression amount [5] | Keratin 10 RNA expression amount [6] |
| --- | --- | --- | --- | --- | --- | --- |
| Ala-[Hyp]-Gly [Example 7] | 3.09 ± 0.23** | 0.52 ± 0.01 | 2.21 ± 0.67** | 1.36 ± 0.07* | 2.00 ± 0.02*** | 5.06 ± 0.37*** |
| Pro-[Hyp]-Gly [Example 5] | 5.32 ± 0.69*** | 0.53 ± 0.00 | 2.45 ± 0.90** | 1.75 ± 0.22* | 5.36 ± 0.01*** | 3.81 ± 0.17*** |
| O=C(O)[C@@H]1C[C@@H](O)CN1 [Comparative Example 8, L-hydroxyproline] | 0.89 ± 0.09 | 1.52 ± 0.02*** | 0.70 ± 0.29 | 0.94 ± 0.04 | 0.94 ± 0.10 | 0.64 ± 0.02** |
| N[C@@H](CCC(=O)O)C(=O)O [Comparative Example 11, L-glutamic acid] | 0.77 ± 0.04* | 1.00 ± 0.02** | 1.06 ± 0.24 | 0.85 ± 0.11 | 0.40 ± 0.01** | 0.65 ± 0.01** |
| Glu-Hyp [Example 6] | 3.26 ± 1.61** | 0.65 ± 0.02 | 2.35 ± 0.85** | 1.95 ± 0.08** | 2.12 ± 0.01*** | 3.48 ± 0.05*** |
